Here are results for 25 compounds from patent US6784201B2, “Benzothiepines having activity as inhibitors of ileal bile acid transport and taurocholate uptake” (G.D. Searle & Company, priority 1994, dated 2004).

This experiment deals with T1, human IBAT (Homo sapiens, UniProt Q12908).
T1 construct: expressed in transfected cells; host or cells: Baby hamster kidney (BHK) cells, clone H14
T1 sequence (Q12908 1-348): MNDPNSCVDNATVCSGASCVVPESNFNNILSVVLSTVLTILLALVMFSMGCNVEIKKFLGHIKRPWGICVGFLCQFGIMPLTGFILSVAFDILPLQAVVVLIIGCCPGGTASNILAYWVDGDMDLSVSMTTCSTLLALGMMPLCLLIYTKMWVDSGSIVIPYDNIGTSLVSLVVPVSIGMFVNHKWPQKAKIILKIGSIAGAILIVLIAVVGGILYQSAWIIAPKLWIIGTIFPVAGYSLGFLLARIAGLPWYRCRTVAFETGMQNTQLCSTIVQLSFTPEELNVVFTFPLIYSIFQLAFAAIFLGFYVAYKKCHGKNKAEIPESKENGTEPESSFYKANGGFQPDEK
Description: In vitro assay of IBAT-mediated uptake of [14C]-taurocholate (TC) in H14 cells. Format: cell-based. To be noted: read-out: Human TC IC50. In short, it runs like this:
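BHK cells stably expressing human IBAT (H14) were incubated 2 h at 37° C with compound and 3 μM final [14C]-taurocholate in DMEM (4.5 g/L glucose) plus 0.2% fatty acid-free BSA. After cold PBS washes, cell-associated radioactivity was measured by scintillation counting.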

Take `CCCCC1(CCCC)CS(=O)(=O)c2ccc(N(C)C)cc2C(c2ccc(OCc3cc[n+](CC(=O)OC(C)(C)C)cc3)c(F)c2)C1O` (stereo not shown) [Example 1295]: the IC50 (commonly the concentration needed to halve the response being measured) came out at 14 nM.

Turning to `CCCCC1(CCCC)CS(=O)(=O)c2ccc(N(C)C)cc2C(c2ccc(OCCOCCOc3cccc(N(CC)CC)c3)c(F)c2)C1O` (stereo not shown) [Example 1296], the IC50 turned out to be 63 nM. With `CCCCC1(CCCC)CS(=O)(=O)c2ccc(N(C)C)cc2C(c2cccc(OCCOCCOCC[n+]3ccc(C4CCC(C)CC4)cc3)c2)C1O` (stereo not shown) [Example 1297], the IC50 came to 29 nM. As to `CCCCC1(CCCC)CS(=O)(=O)c2ccc(N(C)C)cc2C(c2cccc(OCCOCCOCC[N+](C)(C)CCC(C)CCN(C)C)c2)C1O` (stereo not shown) [Example 1298], the IC50 worked out at 18 nM.

Regarding `CCCCC1(CCCC)CS(=O)(=O)c2ccc([N+](C)(C)C)cc2C(c2cccc(OC)c2)C1O` (stereo not shown) [Example 1301], the IC50 stood at 150 nM.

`CCCCC1(CCCC)CS(=O)(=O)c2c(O)cccc2C(c2cccc(O)c2)C1O` (stereo not shown) [Example 1302]: the IC50 was determined as 1400 nM. Consider `CCCCC1(CCCC)CS(=O)(=O)c2ccc(N(C)C)cc2C(c2ccc(OCC[N+](C)(C)C)cc2)C1O` (stereo not shown) [Example 1303], for which the IC50 was 260 nM. `CCCCC1(CCCC)CS(=O)(=O)c2ccc(NC(C)(C)C)cc2C(c2cccc(OC)c2)C1O` (stereo not shown) [Example 1304]: the IC50 is 250 nM. In the case of `CCCCC1(CCCC)CS(=O)(=O)c2c(NC)cccc2C(c2ccc(F)cc2)C1O` (stereo not shown) [Example 1305], the IC50 stood at 250 nM. Consider `CCCCC1(CCCC)CS(=O)(=O)c2ccc(N(C)C)cc2C(c2ccc(OC(=O)C(OC)(c3ccccc3)C(F)(F)F)cc2)C1O` (stereo not shown) [Example 1306], for which the IC50 was 1200 nM. The value for `CCCCC1(CC)CS(=O)(=O)c2ccc(N(C)C)cc2C(c2ccc(OS(=O)(=O)CC34CCC(CC3=O)C4(C)C)c(F)c2)C1O` (stereo not shown) [Example 1308] was 40 nM. For the compound `CCCCC1(CCCC)CS(=O)(=O)c2c(F)cccc2C(c2ccc(OC)cc2)C1O` (stereo not shown) [Example 1309], the IC50 was determined as 240 nM.

With `CCCCC1(CC)CS(=O)(=O)c2ccc(N)cc2C(c2ccccc2)C1O` (stereo not shown) [Example 1310], the IC50 is 1160 nM.

Turning to `CCCCCCOc1ccc2c(c1)S(=O)(=O)CC(CC)(CCCC)C(O)C2c1ccccc1` (stereo not shown) [Example 1312], the IC50 stood at 5000 nM. Regarding `CCCCC1(CC)CS(=O)(=O)c2cc(OCC)ccc2C(c2ccccc2)C1O` (stereo not shown) [Example 1313], the IC50 was determined as 6100 nM. In the case of `CCCCCCOc1ccc2c(c1)C(c1ccccc1)C(O)C(CC)(CCCC)CS2(=O)=O` (stereo not shown) [Example 1315], the IC50 is 1670 nM. The value for `CCCCC1(CC)CS(=O)(=O)c2cc(O)ccc2C(c2ccccc2)C1O` (stereo not shown) [Example 1316] was 3900 nM; that for `CCCCC1(CCCC)CS(=O)(=O)c2ccc(N(C)C)cc2C(c2ccc(OC)c(F)c2)C1O` (stereo not shown) [Example 1347] was 3.6 nM; that for `CCCCC1(CCCC)CS(=O)(=O)c2ccc(N(C)C)cc2C(c2ccc(OCCC[N+](CCCC)(CCCC)CCCC)cc2)C1O` (stereo not shown) [Example 1352] was 100 nM. Next, `CCCCC1(CCCC)CS(=O)(=O)c2ccc(N(C)C)cc2C(c2ccc(OCCOCCOCC[N+]3(C)CC[N+](C)(C)CC3)c(F)c2)C1O` (stereo not shown) [Example 1354]: 6 nM; `CCCCC1(CCCC)CS(=O)(=O)c2ccc(N(C)C)cc2C(c2cccc(OCCOCCOCC[n+]3ccccc3)c2)C1O` (stereo not shown) [Example 1355]: 1.5 nM. Take `CCCCC1(CCCC)CS(=O)(=O)c2ccc(N(C)C)cc2C(c2ccc[n+](C)c2)C1O` (stereo not shown) [Example 1356]: the IC50 is 220 nM. `CCCCC1(CCCC)CS(=O)(=O)c2ccc(N(C)C)cc2C(c2cccc(OCCOCCOCC[P+](CC)(CC)CC)c2)C1O` (stereo not shown) [Example 1358]: the IC50 was 8 nM.

Regarding `CCCCC1(CCCC)CS(=O)(=O)c2ccc(N(C)C)cc2C(c2cccc(OCCOCCOCC[n+]3ccn(Cc4ccccc4)c3)c2)C1O` (stereo not shown) [Example 1359], the IC50 came to 14 nM. `CCCCC1(CCCC)CS(=O)(=O)c2ccc(N(C)C)cc2C(c2cccc(OCCOCCOCC[n+]3nnn4c3CCCCC4)c2)C1O` (stereo not shown) [Example 1360]: the IC50 is 3 nM.
